Measurements from patent publication US10183015B2, “Heterocyclic compounds and methods of use” (Medivation Technologies LLC, priority 2015, dated 2019).
Several values for one entry are separate records, joined by “and”; a condition that tells them apart may be missing. Equal values may be shown once.

Tests used:
FAS = assay: DIN mouse model: hepatic FAS gene expression; type: in vivo; set-up: key to 2^DDct: expression relative to vehicle group, normalized to 18S; conditions: 20 mg/kg group; for 18S: Gene Expression: FAS table, 18S reference; for 2^DDct / DDct / Dct / FAS: Gene Expression: FAS
Description: (§1) Gene expression analysis. Hepatic expression levels of genes involved in lipid metabolism (FAS, SREBP1, ACC1, SCD1), cholesterol metabolism (HMG-CoAR, LDLR), SREBP proteolysis (SCAP, INSIG1), ER stress (PERK), oxidative stress (NRF2), inflammation (MCP-1), and fibrosis (collagen 1α1) were quantified by RTqPCR. Expression level was normalized to 18S gene expression and relative expression to vehicle group was calculated with the […] method.
(§2) Male C57Bl/6J mice (8 weeks old) were housed in enriched ventilated cages (31×12.5×12.7 cm) throughout the experimental phase. Animals' cages litters were changed at least once a week. Animal were housed 5 per cage on inverted 12-hour light cycle (at 09:00 am lights off), 22±2° C. and 55±10% relative humidity. The acclimation period was 20 days. During the acclimation period, all mice were fed a standard diet (RM1 (E) 801492, SDS) and tap water ad libitum. After the acclimation period, mice were fed with the DIN diet (60% fat, cholesterol enriched) and fructose-enriched tap water ad libitum until the end of the experiment.
(§3) At 6 weeks of diet, mice were 4-hour fasted (09:00 am to 1:00 pm) and blood (150 μl/EDTA) was collected at 01:00 pm by retro-orbital bleeding under isoflurane anesthesia. Mice were then allocated in 2 homogenous groups (n=12/group) according to their plasma levels of ALT (average levels: 685U/L), AST (average levels: 627U/L) and HOMA-IR index (average value: 4.7), into 2 homogenous groups (see values at day 0 in Tables 15A and 15B ALT/AST and Tables 16A and 16B for HOMA-IR). Mice were then treated once daily by oral gavage with vehicle (Group 1) or Compound #37 at 20 mg/kg (Group 2) for 70 days.
(§4) Hepatic expression levels of genes involved in lipid (FAS, SREBP1, ACC1, SCD1), cholesterol metabolism (HMG-CoAR, LDLR), in SREBP proteolysis (SCAP, INSIG1), in ER stress (PERK), oxidative stress (NRF2), and inflammation (MCP-1) were not changed. However, expression of collagen 1α1, involved in liver fibrosis, was reduced by 66% in mice treated with Compound #37 (p<0.05 vs. vehicle).

ACC1 = assay: DIN mouse model: hepatic ACC1 gene expression; type: in vivo; set-up: key to 2^DDct: expression relative to vehicle group, normalized to 18S; conditions: for 2^DDct / ACC1 / DDct / Dct: Gene Expression: ACC1, 20 mg/kg group; for 18S: Gene Expression: ACC1 table, 18S reference, 20 mg/kg group
Description: as §1, §2, §3, §4

ob/ob mice = assay: ob/ob mice: liver triglycerides, fatty acids, total cholesterol; type: in vivo, mouse; conditions: 8 weeks; for liver fatty acids / liver total cholesterol / liver triglycerides: ob/ob mice
Description: Groups of mice were either untreated (group 1) or treated for 8 weeks with vehicle (group 2), or with Compound #37 at 5 mg/kg (group 3), 10 mg/kg (group 4), or 20 mg/kg (group 5). Treatment was daily by oral gavage in vehicle (20% HPβCD). Values are presented as mean±standard error of the mean (sem). A t test was performed to compare the untreated group and the vehicle group. Then Compound #37-treated groups were compared to the vehicle-treated group with a 1-way ANOVA+Dunnett's post-test. […] For each test, a p<0.05 was considered significant. Of note, animal #39, group 1 was excluded from the statistical analysis, due to low values for all parameters measured. Some other values were considered as out-liners and excluded from the statistical analysis when the value was far below the mean minus 2 SD. Excluded values are marked with an asterisk in Tables 21-23.

[1] = tested on: 60% high fat Paigen diet induced NASH mouse model; assay: Short-term Paigen-diet NASH mouse model: liver Oil Red O staining; type: in vivo; conditions: 40 mg/kg p.o. (stopped after 4 administrations), 9 days of diet
[2] = 5 mg/kg daily oral gavage, group mean
[3] = 5 mg/kg daily oral gavage, individual animal values, 5 mg/kg
[4] = 10 mg/kg daily oral gavage, group mean
[5] = 10 mg/kg daily oral gavage, individual animal values, 10 mg/kg
[6] = 20 mg/kg daily oral gavage, group mean
[7] = 20 mg/kg daily oral gavage, individual animal values (* = excluded from statistical analysis), 20 mg/kg

CC(C)Cc1cc(-c2nc(-c3ccc(NS(=O)(=O)C(F)(F)F)cc3Cl)cs2)ccn1 [Compound 37, N-(3-chloro-4-(2-(2-isobutylpyridin-4-yl)thiazol-4-yl)phenyl)-1,1,1-trifluoromethanesulfonamide]
18S (FAS; individual animal, 20 mg/kg): 12.55 (2×) and 12.84 and 12.43 and 12.35 (2×) and 12.59 and 11.73 and 12.51 and 11.5 and 11.55
18S (FAS; mean, n 11): 12.3
2^DDct (FAS; individual animal, 20 mg/kg): 2.46 and 1.29 and 0.37 and 1.47 and 0.36 and 1.30 and 0.81 and 0.64 and 0.33 and 0.21 and 1.77
DDct (FAS; individual animal, 20 mg/kg): −1.30 and −0.37 and 1.45 and −0.56 and 1.48 and −0.38 and 0.31 and 0.64 and 1.62 and 2.28 and −0.82
Dct (FAS; individual animal, 20 mg/kg): 7.2 and 8.13 and 9.95 and 7.94 and 9.98 and 8.12 and 8.81 and 9.14 and 10.12 and 10.78 and 7.68
FAS (FAS; individual animal, 20 mg/kg): 19.75 and 20.68 and 22.79 and 20.37 and 22.33 (2×) and 20.71 and 20.54 and 21.65 and 21.62 and 20.03
2^DDct (FAS; mean, n 11): 1
DDct (FAS; mean, n 11): 0.40
Dct (FAS; mean, n 11): 8.9
FAS (FAS; mean, n 11): 21.2
2^DDct (ACC1; individual animal): 1.62 and 1.20 and 0.21 and 1.19 and 0.20 and 1.29 and 0.79 and 0.67 and 0.34 and 0.23 and 1.77
ACC1 (ACC1; individual animal): 27.74 and 28.17 and 31 and 28.06 and 30.55 and 28.11 and 27.95 and 28.97 and 28.95 and 29.55 and 27.41
DDct (ACC1; individual animal): −0.69 and −0.26 and 2.28 and −0.25 and 2.32 and −0.36 and 0.34 and 0.58 and 1.57 and 2.12 and −0.82
Dct (ACC1; individual animal): 15.19 and 15.62 and 18.16 and 15.63 and 18.2 and 15.52 and 16.22 and 16.46 and 17.45 and 18 and 15.06
2^DDct (ACC1; mean, n 11): 0.86
ACC1 (ACC1; mean, n 11): 28.8
DDct (ACC1; mean, n 11): 0.62
Dct (ACC1; mean, n 11): 16.5
18S (ACC1; individual animal, 20 mg/kg): 12.55 (2×) and 12.84 and 12.43 and 12.35 (2×) and 12.59 and 11.73 and 12.51 and 11.5 and 11.55
18S (ACC1; mean, n 11): 12.3
hepatic cholesterol concentrations (ob/ob mice): no effect
liver fatty acids (ob/ob mice; [2]): 35.9 nmol/mg liver
liver total cholesterol (ob/ob mice; [2]): 12.5 μg/mg liver
liver triglycerides (ob/ob mice; [2]): 80.3 μg/mg liver
liver fatty acids (ob/ob mice; [3]): 21.39 nmol/mg liver and 38.65 nmol/mg liver and 43.56 nmol/mg liver and 43.68 nmol/mg liver and 42.30 nmol/mg liver and 26.81 nmol/mg liver and 31.47 nmol/mg liver and 34.22 nmol/mg liver and 40.04 nmol/mg liver and 36.50 nmol/mg liver
liver total cholesterol (ob/ob mice; [3]): 9.57 μg/mg liver and 13.21 μg/mg liver and 16.08 μg/mg liver and 15.08 μg/mg liver and 14.41 μg/mg liver and 9.18 μg/mg liver and 10.40 μg/mg liver and 12.19 μg/mg liver and 13.20 μg/mg liver and 13.39 μg/mg liver
liver triglycerides (ob/ob mice; [3]): 32.54 μg/mg liver and 89.34 μg/mg liver and 118.92 μg/mg liver and 123.01 μg/mg liver and 111.66 μg/mg liver and 54.15 μg/mg liver and 66.99 μg/mg liver and 69.20 μg/mg liver and 107.70 μg/mg liver and 29.81 μg/mg liver
liver fatty acids (ob/ob mice; [4]): 47.00 nmol/mg liver
liver total cholesterol (ob/ob mice; [4]): 14.47 μg/mg liver
liver triglycerides (ob/ob mice; [4]): 115.44 μg/mg liver
liver fatty acids (ob/ob mice; [5]): 29.78 nmol/mg liver and 49.10 nmol/mg liver and 42.91 nmol/mg liver and 39.50 nmol/mg liver and 43.38 nmol/mg liver and 48.06 nmol/mg liver and 58.06 nmol/mg liver and 46.42 nmol/mg liver and 53.47 nmol/mg liver and 59.33 nmol/mg liver
liver total cholesterol (ob/ob mice; [5]): 11.02 μg/mg liver and 14.95 μg/mg liver and 15.25 μg/mg liver and 11.27 μg/mg liver and 14.07 μg/mg liver and 16.04 μg/mg liver and 17.20 μg/mg liver and 13.65 μg/mg liver and 14.90 μg/mg liver and 17.30 μg/mg liver
liver triglycerides (ob/ob mice; [5]): 71.81 μg/mg liver and 110.46 μg/mg liver and 96.59 μg/mg liver and 67.76 μg/mg liver and 106.16 μg/mg liver and 153.12 μg/mg liver and 128.22 μg/mg liver and 157.22 μg/mg liver and 124.56 μg/mg liver and 138.07 μg/mg liver
liver fatty acids (ob/ob mice; [6]): 42.4 nmol/mg liver
liver total cholesterol (ob/ob mice; [6]): 13.8 μg/mg liver
liver triglycerides (ob/ob mice; [6]): 106.3 μg/mg liver
liver fatty acids (ob/ob mice; [7]): 46.82 nmol/mg liver and 11.67* nmol/mg liver and 43.19 nmol/mg liver and 56.93 nmol/mg liver and 36.64 nmol/mg liver and 43.21 nmol/mg liver and 40.58 nmol/mg liver and 33.97 nmol/mg liver and 38.27 nmol/mg liver and 41.87 nmol/mg liver
liver total cholesterol (ob/ob mice; [7]): 16.75 μg/mg liver and 7.14* μg/mg liver and 13.56 μg/mg liver and 17.52 μg/mg liver and 11.98 μg/mg liver and 14.67 μg/mg liver and 14.39 μg/mg liver and 13.53 μg/mg liver and 12.83 μg/mg liver and 9.07 μg/mg liver
liver triglycerides (ob/ob mice; [7]): 115.27 μg/mg liver and 10.45* μg/mg liver and 99.74 μg/mg liver and 160.82 μg/mg liver and 71.59 μg/mg liver and 95.60 μg/mg liver and 114.62 μg/mg liver and 92.80 μg/mg liver and 91.36 μg/mg liver and 115.09 μg/mg liver
Liver O red Oil staining, % labeling ([1]; group mean): 1.87%
Liver O red Oil staining, % labeling ([1]; individual animals): 2.53% and 2.54% and 1.12% and 1.28%
